Laboratory results as given in patent US5208340A, “Process for producing an aryl-imido-peralkanoic acid by oxidizing the corresponding aryl-imido-alkanoic acid with hydrogen peroxide” (Ausimont S.p.A., priority 1990, dated 1993).

Experiment: Solubility of PAC and PAP in halogenated solvents (Table 1)
Assay type: physicochemical
Details: for solubility in the particular halogenated solvents (in words): methylene chloride and trichloromethane
Source text: The novel mechanism results in high conversion and yield under low temperature, low viscosity and internal system temperature control conditions. In addition, a very efficient product recovery can be obtained from the inorganic phase. Of course, the pressure should be such as to keep the system in the liquid phase.

Solubility (Dichloromethane, at 14° C.)	Solubility (Dichloromethane, at 25° C., (**) Estimated value)	Solubility (Trichloromethane, at 14° C.)	Solubility (Trichloromethane, at 25° C.)	solubility in the particular halogenated solvents (in words)	Solubility (Dichloromethane, at 25° C.)	SMILES
26.3 g per 100 cm^3 of solvent	35.2 g per 100 cm^3 of solvent	26.1 g per 100 cm^3 of solvent	34.9 g per 100 cm^3 of solvent	soluble	–	O=C(CCCCCN1C(=O)c2ccccc2C1=O)OO [PAP, ε-phthalimidoperhexanoic acid]
51.1 g per 100 cm^3 of solvent	–	52.3 g per 100 cm^3 of solvent	67.9 g per 100 cm^3 of solvent	even more soluble	67.3 g per 100 cm^3 of solvent	O=C(O)CCCCCN1C(=O)c2ccccc2C1=O [PAC, ε-phthalimidohexanoic acid]
